# Data published in PubChem BioAssay AID1054 (Sanford-Burnham Center for Chemical Genomics, 2009).
# Activity calls are given as the source filed them. The rule behind the calls is not given here.
# Biological target: Dual specificity protein phosphatase 6 (Rattus norvegicus) (UniProt Q64346)
# Assay: redox-state modulators of MKP-3 activity, biochemical, rat enzyme, secondary assay (AID 1054)
# Details: recombinant MKP-3 phosphatase activity
# Dual specificity protein phosphatase 6 (Rattus norvegicus), sequence (Q64346 whole entry, looked up): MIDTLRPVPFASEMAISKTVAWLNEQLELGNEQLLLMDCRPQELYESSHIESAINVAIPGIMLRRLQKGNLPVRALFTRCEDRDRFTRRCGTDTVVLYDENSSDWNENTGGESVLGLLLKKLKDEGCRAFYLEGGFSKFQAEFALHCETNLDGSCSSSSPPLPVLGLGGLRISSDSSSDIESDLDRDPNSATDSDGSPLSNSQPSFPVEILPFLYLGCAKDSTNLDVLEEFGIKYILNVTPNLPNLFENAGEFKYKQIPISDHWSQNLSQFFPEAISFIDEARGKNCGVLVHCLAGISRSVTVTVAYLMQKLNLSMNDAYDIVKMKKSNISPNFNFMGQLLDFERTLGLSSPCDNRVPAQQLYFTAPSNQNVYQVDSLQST
row,SMILES,IC50
1,CCOC(=O)C1=C(C)N=c2sc(=Cc3ccc(OCC(=O)O)cc3)c(=O)n2C1c1ccc(SC)cc1 (centres undefined),9.08 µM
2,O=C(O)[C@H](O)c1ccccc1,> 100 µM (inactive)
3,NC(=O)[C@H](Cc1ccccc1)n1c(=O)[nH]c(=O)n(-c2ccc(Cl)cc2)c1=O,> 100 µM (inactive)
4,Cc1cc(I)cc2c1NC(C(=O)O)C1CC=CC21 (centres undefined),> 100 µM (inactive)
5,Cn1c(=O)n(-c2ccccc2)c(=O)n([C@@H](Cc2ccccc2)C(N)=O)c1=O,> 100 µM (inactive)
6,CCn1c(=O)n(C)c(=O)n([C@@H](Cc2ccccc2)C(N)=O)c1=O,> 100 µM (inactive)
7,CCOC(=O)C1Nc2c(OC)cccc2C2OCCC12 (centres undefined),> 100 µM (inactive)
8,O=c1/c(=C/c2cccc(Br)c2)sc2nc3cc(Br)cnc3n12,> 100 µM (inactive)
9,CCCn1c(=O)nc(NCc2ccc(C)cc2)[nH]c1=O,> 100 µM (inactive)
10,COC(=O)c1ccccc1OC(=O)c1ccc2c(c1)C1C=CCC1C(C(=O)O)N2 (centres undefined),17.2 µM
11,Cc1ccc2c(c1C)NC(C(=O)O)C1CC=CC21 (centres undefined),5.96 µM
12,NC(=O)c1cccc2c1NC(C(=O)O)C1CC=CC21 (centres undefined),55.5 µM
13,Cc1ccc2c(nc3s/c(=C\c4ccc(-c5ccccc5C(=O)O)o4)c(=O)n32)c1C,21.6 µM
14,Clc1ccccc1CSc1nnc(-c2ccco2)c(-c2ccco2)n1,24.2 µM
15,Cc1cc2ccccn2c1C(=O)C(=O)O,> 100 µM (inactive)
16,CCC(CC)c1nnc(NC(=O)Cc2cccs2)s1,> 100 µM (inactive)
17,CCC(CC)NC(=S)c1ccc(O)c(OC)c1,4.16 µM
18,O=c1nc(NCCc2ccccc2)[nH]c(=O)n1-c1ccccc1,> 100 µM (inactive)
19,COc1cc(C(=S)N2CCCC2)ccc1O,> 100 µM (inactive)
